Data taken from patent publication US7288535B2, “Methods and compositions for stimulating bone growth using nitric oxide releasing bisphosphonate conjugates” (OsteoScreen, Inc., priority 2002, dated 2007).
Read-outs that look alike come from different tables or passages of the source. Marks after values point to notes of the source that are not given here.

How the values were obtained:
[1] = tested on: human stomach; details: healthy volunteers, doses prescribed for osteoporosis and Pagets disease of bone; cited from earlier work
[2] = tested on: neonatal murine calvarial incubation media; details: mean ± standard error (n=5)
Description: (§1) An assay for bone resorption or bone formation is similar to that described by Gowen M. & Mundy G., J Immunol (1986) 136:2478-82. Briefly, four days after birth, the front and parietal bones of ICR Swiss white mouse pups are removed by microdissection and split along the sagittal suture. […] The medium used when the assay is conducted to assess bone formation is Fitton and Jackson Modified BGJ Medium (Sigma) supplemented with 6 ug/ml insulin, 6 ug/ml transferrin, 6 ng/ml selenous acid, calcium and phosphate concentrations of 1.25 and 3.0 mM, respectively, and ascorbic acid to a concentration of 100 ug/ml is added every two days. The incubation is conducted at 37° C. in a humidified atmosphere of 5% CO2 and 95% air for 96 hours.
These neonatal murine calvaria do contain measurable levels of alkaline phosphatase and this can be measured either from the calvaria itself or to some degree in the incubation media as a semi-quantitative measurement of bone formation activity. For measurement of alkaline phosphatase activity in the media, 50 ul is removed at the end of the assay. The activity is then measured using standard alkaline phosphatase reagents.
Alkaline phosphatase activity is measured in the incubation media as detailed described above in “Techniques for Neonatal Mouse Calvaria Assay (in vitro)).

[3] = tested on: Neonatal Murine Calvariae; details: mean ± standard error (n=5)
Description: as §1
The bones are removed from the incubation media and fixed in 10% buffered formalin for 24-48 hours, decalcified in 14% EDTA for 1 week, processed through graded alcohols; and embedded in paraffin wax. Three μm sections of the calvaria are prepared. Representative sections are selected for histomorphometric assessment of bone formation or bone resorption. Bone changes are measured on sections cut 200 μm apart. Osteoblasts and osteoclasts are identified by their distinctive morphology.
Selected compounds and appropriate controls were assayed in vitro (ex vivo) for bone formation activity (described above in “Techniques for Neonatal Mouse Calvaria Assay (in vitro)). Histomorphometrical assessments of ex vivo calvaria were carried out using an OsteoMetrics bone morphometry measurement program, according to the manufacturer's instructions. Measurements were determined using either a 10- or 20-fold objective with a standard point counting eyepiece graticule.
New bone formation was determined (using a 20× objective) by measuring the new bone area formed in one field in 3 representative sections of each bone (4 bones per group). Each measurement was carried out ½ field distance from the end of the suture. Both total bone and old bone area were measured. Data were expressed as new bone width in mm.
Osteoblast numbers are determined by point counting. The number of osteoblast cells lining the bone surface on both sides of the bone are counted in one field using a 20× objective. Data are expressed as osteoblast numbers/mm of bone surface.

SMILES	injury to the stomach [1]	Alkaline Phosphatase OD ([2]; 0.1 uM) [OD]	Alkaline Phosphatase OD ([2]; 1 uM) [OD]	Alkaline Phosphatase OD ([2]; 10 uM) [OD]	Alkaline Phosphatase OD ([2]; 100 uM) [OD]	Cell Number/0.3 mm bone ([3]; 0.1 uM)	New Bone Area ([3]; 0.1 uM) [mm^2 × 10^−3]	Cell Number/0.3 mm bone ([3]; 1 uM)	New Bone Area ([3]; 1 uM) [mm^2 × 10^−3]	Cell Number/0.3 mm bone ([3]; 10 uM)	New Bone Area ([3]; 10 uM)	Cell Number/0.3 mm bone ([3]; 100 uM)	New Bone Area ([3]; 100 uM)
NCCCC(O)(P(=O)(O)O)P(=O)(O)O [Alendronate, (4-animo-1-hydroxybutylidene)bis-phosphonate]	cause erosions and ulcers in the human stomach	0.030 ± 0.009	0.031 ± 0.010	0.034 ± 0.001	0.038 ± 0.003	98± 6 /0.3 mm bone	2.9 ± 0.1	103± 4 /0.3 mm bone	3.2 ± 0.5	101± 5 /0.3 mm bone	2.7 ± 0.2 mm^2 × 10^−3	97± 3 /0.3 mm bone	3.1 ± 0.3 mm^2 × 10^−3
O=C(NCCCC(O)(P(=O)(O)O)P(=O)(O)O)c1ccc(CO[N+](=O)[O-])cc1 [NOX-Alendronate, [4-(4′-nitrooxymethyl)benzoylamino-1-hydroxybutylidene]-bis-phosphonate]		0.029 ± 0.007	0.023 ± 0.001	0.053 ± 0.007	0.072 ± 0.003	104 ± 8 /0.3 mm bone	3.6 ± 0.6	115 ± 5 /0.3 mm bone	4.2 ± 0.4	132 ± 5 /0.3 mm bone	6.7 ± 0.7* mm^2 × 10^−3	124 ± 2 /0.3 mm bone	5.4 ± 0.3* mm^2 × 10^−3
